row,SMILES,melting point
1,CCn1nc2c(N)nc3ccccc3c2c1CC1(O)CCN(C(C)=O)CC1,231 to 232.5 °C
2,CCn1nc2c(N)nc3c(c2c1CC1(O)CCCCC1)CCCC3,232 to 234 °C
3,CCCn1nc2c(N)nc3ccccc3c2c1CC1(O)CCC1,191 to 193 °C
4,CCn1nc2c(N)nc3ccccc3c2c1CC1(O)CCOCC1,253 to 255 °C
5,CCn1nc2c(N)nc3ccccc3c2c1CC1(O)CCCC1,256 to 259 °C
6,CCCNC(=O)N1CCC(O)(Cc2c3c(nn2CC)c(N)nc2ccccc23)CC1,208.5 to 210 °C
7,CCn1nc2c(N)nc3ccccc3c2c1CC1(O)CCC1,245 to 247 °C
8,CCn1nc2c(N)nc3ccccc3c2c1CC1(O)CCCCC1,211.5 to 213 °C
9,CCn1nc2c(N)nc3ccccc3c2c1CC1CCOCC1,226 to 228 °C
10,CCCn1nc2c(N)nc3ccccc3c2c1CC1CCOCC1,218 to 220 °C
11,CC(C)NC(=O)N1CCC(F)(Cc2c3c(nn2C)c(N)nc2ccccc23)CC1,241 to 244 °C
12,CCCn1nc2c(N)nc3ccccc3c2c1CC1(F)CCN(C(=O)NC(C)C)CC1,227 to 229 °C (dec.)
13,CCn1nc2c(N)nc3ccccc3c2c1CC1(O)CCSCC1,251.5 to 255 °C
14,CCCn1nc2c(N)nc3ncccc3c2c1CC1CCOCC1,252 to 255 °C
15,COCCn1nc2c(N)nc3ncccc3c2c1CC1CCOCC1,230 to 233 °C
16,CCCn1nc2c(N)nc3ccccc3c2c1CC1(O)CCOCC1,209 to 211 °C
17,Cn1nc2c(N)nc3ccccc3c2c1CC1(F)CCOCC1,252 to 254 °C
18,Cn1nc2c(N)nc3ccccc3c2c1CC1(O)CCOCC1,260 to 262 °C (dec.)
19,COCCn1nc2c(N)nc3ccccc3c2c1CC1CCOCC1,189 to 190 °C

# The next lines start with the values.
row,melting point,SMILES
1,268 to 270 °C,CCn1nc2c(N)nc3ccccc3c2c1CC1(O)CCN(S(C)(=O)=O)CC1
2,269 to 271 °C,CCn1nc2c(N)nc3ccccc3c2c1CC1(F)CCN(S(C)(=O)=O)CC1
3,241 to 243 °C,CC(=O)N1CCC(F)(Cc2c3c(nn2C)c(N)nc2ccccc23)CC1
4,228 to 230 °C,CCn1nc2c(N)nc3ccccc3c2c1CC1(F)CCN(C(C)=O)CC1
5,205 to 207 °C,CCn1nc2c(N)nc3ccccc3c2c1CC1(F)CCN(C(=O)NC(C)C)CC1
6,283 to 285 °C,Cn1nc2c(N)nc3ccccc3c2c1CC1(F)CCN(S(C)(=O)=O)CC1
7,275 to 277 °C,CCn1nc2c(N)nc3ccccc3c2c1CC1(F)CCOCC1
8,268 to 270 °C (dec.),CCCn1nc2c(N)nc3ccccc3c2c1CC1(F)CCN(S(C)(=O)=O)CC1

# — patent US7943636B2 (dated 2011)
